Measured values as given in patent publication US20240228488A1 (TAKEDA PHARMACEUTICAL COMPANY LIMITED, priority 2021, published 2024).

Tests used:
[1] = molecular target: human activated kallikrein enzyme (Homo sapiens, UniProt P03952); assay: Plasma kallikrein inhibition, fluorogenic PFR-AMC substrate, 500 pM activated kallikrein format; assay type: biochemical; settings: 500 pM activated kallikrein, 300 uM PFR-AMC, 30 min preincubation, 10 min reaction; read-out: Primary Dose Response Assay: Average EC50
Chain of human activated kallikrein enzyme (P03952 391-638 limits assumed): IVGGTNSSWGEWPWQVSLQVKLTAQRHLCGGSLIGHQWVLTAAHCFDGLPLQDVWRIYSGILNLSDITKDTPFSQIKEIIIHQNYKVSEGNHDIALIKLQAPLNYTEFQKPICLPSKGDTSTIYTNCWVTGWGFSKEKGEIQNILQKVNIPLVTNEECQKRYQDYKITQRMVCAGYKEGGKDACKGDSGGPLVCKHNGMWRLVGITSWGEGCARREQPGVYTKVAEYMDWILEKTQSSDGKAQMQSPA
Chain of human activated kallikrein enzyme (P03952 20-390 partner limits assumed): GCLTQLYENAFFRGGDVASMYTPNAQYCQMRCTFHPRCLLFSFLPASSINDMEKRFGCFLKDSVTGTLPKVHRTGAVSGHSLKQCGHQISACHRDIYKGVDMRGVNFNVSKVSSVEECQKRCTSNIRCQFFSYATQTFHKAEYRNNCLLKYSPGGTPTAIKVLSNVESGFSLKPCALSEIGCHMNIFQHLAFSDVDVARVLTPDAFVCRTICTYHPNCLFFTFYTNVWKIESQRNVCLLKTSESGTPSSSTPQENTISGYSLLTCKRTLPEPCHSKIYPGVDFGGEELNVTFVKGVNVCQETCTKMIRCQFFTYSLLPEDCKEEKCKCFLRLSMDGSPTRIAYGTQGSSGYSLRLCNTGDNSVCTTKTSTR
In short: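 500 pM enz + cpd, 30 min RT preinc; start w/ PFR-AMC 300 uM; 10 min RT; Ex380/Em460. Buffer: Tris 20 mM pH 7.5, EDTA 1 mM, NaCl 150 mM, PEG-400 0.1%, Triton 0.1%. EC50.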

plasma kallikrein = molecular target: T1, plasma kallikrein (Homo sapiens, UniProt P03952); assay: Neat human plasma assay, FXIIa contact pathway-activated, PFR-AMC substrate; assay type: biochemical; settings: citrated human plasma 78% final, 10 nM human FXIIa, 100 μM PFR-AMC; read-out: Human Plasma Assay: IC90
T1 construct: from tissue
T1 sequence (P03952 391-638 limits assumed): as the sequence (P03952 391-638 limits assumed) above
T1 sequence (P03952 20-390 partner limits assumed): as the sequence (P03952 20-390 partner limits assumed) above
In short: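 Citrated human plasma (78% final) with compound, contact-activated by 10 nM human FXIIa in pKal buffer pH 7.5, with 100 μM PFR-AMC. Fluorescence (360/480 nm) followed 5 min at room temperature; rates versus concentration fitted by 4-parameter equation for IC50/IC90.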

SMILES | EC50 [1] [µM] | IC90 (plasma kallikrein) [µM]
Cc1ccnc([C@H]2C[C@@H]2C(=O)Nc2cc(NCc3cn4cc(C5CC5)cc(N5CC(=O)N(C)C5=O)c4n3)cc(C(F)(F)F)n2)n1 (racemic) [Example 618, rac-(1S*,2S*)—N-(4-(((6-cyclopropyl-8-(3-methyl-2,4-dioxoimidazolidin-1-yl)imidazo[1,2-a]pyridin-2-yl)methyl)amino)-6-(trifluoromethyl)pyridin-2-yl)-2-(4-methylpyrimidin-2-yl)cyclopropane-1-carboxamide] | < 0.001 | 0.4 to 1.5
Cc1ccnc([C@H]2C[C@@H]2C(=O)Nc2ncc(F)c(NCc3cn4cc(C5CC5)cc(N5CC(=O)N(C)C5=O)c4n3)n2)n1 (racemic) [Example 517, rac-(1S*,2S*)-N-(4-(((6-cyclopropyl-8-(3-methyl-2,4-dioxoimidazolidin-1-yl)imidazo[1,2-a]pyridin-2-yl)methyl)amino)-5-fluoropyrimidin-2-yl)-2-(4-methylpyrimidin-2-yl)cyclopropane-1-carboxamide] | < 0.001 | < 0.4

Further lines, results first:

EC50 [1] [µM] | IC90 (plasma kallikrein) [µM] | SMILES
< 0.001 | < 0.4 | Cc1ccnc([C@H]2C[C@@H]2C(=O)Nc2cc(N[C@H](C)c3cn4cc(C5CC5)cc(N5CCCC5=O)c4n3)ncn2)n1 [Example 418, (1S,2S)-N-(6-(((R)-1-(6-cyclopropyl-8-(2-oxopyrrolidin-1-yl)imidazo[1,2-a]pyridin-2-yl)ethyl)amino)pyrimidin-4-yl)-2-(4-methylpyrimidin-2-yl)cyclopropane-1-carboxamide]
< 0.001 | 0.4 to 1.5 | CN(C)C(=O)c1cc(C2CC2)cn2cc(CNc3cc(NC(=O)[C@H]4C[C@@H]4c4cccc(Cl)c4)ncn3)nc12 [Example 299, 2-(((6-((1S,2S)-2-(3-chlorophenyl)cyclopropane-1-carboxamido)pyrimidin-4-yl)amino)methyl)-6-cyclopropyl-N,N-dimethylimidazo[1,2-a]pyridine-8-carboxamide]
< 0.001 | < 0.4 | Cc1ccnc([C@H]2C[C@@H]2C(=O)Nc2cc(N(C)Cc3cn4cc(C5CC5)cc(N5CC(=O)N(C)C5=O)c4n3)ncn2)n1 (racemic) [Example 387, rac-(1S*,2S*)-N-(6-(((6-cyclopropyl-8-(3-methyl-2,4-dioxoimidazolidin-1-yl)imidazo[1,2-a]pyridin-2-yl)methyl)(methyl)amino)pyrimidin-4-yl)-2-(4-methylpyrimidin-2-yl)cyclopropane-1-carboxamide]
